Patent publication US20240270821A1, “GIP/GLP1/GCG TRI-RECEPTOR AGONISTS AND USES THEREOF” (priority 2023, published 2024)
Read-outs that look alike come from different tables or passages of the source. Starred links: 1 amine or outer side, 2 acyl side, 3 side chain; linkers in the order of their positions; H or OH if unused. Non-standard residues stand in square brackets, D forms with d. Residues, ends and D or L forms follow the SMILES beside them. Groups on a side chain read outwards from the residue. No end group written: not given here. *: point of attachment. C18 diacid = O=C(O)CCCCCCCCCCCCCCCCC(=O)*; αMePhe(2-F) = C[C@](N)(Cc1ccccc1F)C(=O)O; γGlu = O=C(O)[C@H](CCC(=O)[*:2])N[*:1]; αMe4Pal = C[C@](N)(Cc1ccncc1)C(=O)O; αMeY = C[C@](N)(Cc1ccc(O)cc1)C(=O)O; 4Pal = N[C@@H](Cc1ccncc1)C(=O)O; αMeL = CC(C)C[C@](C)(N)C(=O)O; αMeS = C[C@](N)(CO)C(=O)O; Orn = NCCC[C@H](N)C(=O)O; AEEA = NCCOCCOCC(=O)O; Aib = CC(C)(N)C(=O)O

How the values were obtained:
Type in all cases: cell-based
[1] = molecular target: human GcgR (Homo sapiens, UniProt P47871); experiment: Functional cAMP activity in the presence of 1% HSA; details: read-out: cAMP Rel EC50, hGcgR
[2] = molecular target: T1, hGIPR (Homo sapiens, UniProt P48546); experiment: Functional cAMP activation in the presence of 0.1% casein (no HSA); details: read-out: Relative cAMP EC50, hGIPR;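 note: intracellular cAMP rise after 30 min at 37 °C read by HTRF against a standard curve, scaled between buffer alone (0%) and top control ligand concentration (100%), four-parameter fit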
T1 sequence (P48546 22-466): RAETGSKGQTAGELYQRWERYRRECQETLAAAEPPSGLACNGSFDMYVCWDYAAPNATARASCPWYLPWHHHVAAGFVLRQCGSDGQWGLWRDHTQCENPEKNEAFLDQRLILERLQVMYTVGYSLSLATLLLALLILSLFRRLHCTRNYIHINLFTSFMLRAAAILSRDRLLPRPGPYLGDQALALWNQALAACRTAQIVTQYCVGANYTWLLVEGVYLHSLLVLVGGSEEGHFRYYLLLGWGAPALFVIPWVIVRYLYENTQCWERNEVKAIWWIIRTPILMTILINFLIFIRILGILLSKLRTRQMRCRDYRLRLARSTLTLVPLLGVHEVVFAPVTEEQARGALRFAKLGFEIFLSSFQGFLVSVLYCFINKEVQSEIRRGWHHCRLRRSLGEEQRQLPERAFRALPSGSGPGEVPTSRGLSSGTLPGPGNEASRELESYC

[3] = molecular target: T1, hGIPR; experiment: Functional cAMP activity in the presence of 1% HSA; details: read-out: cAMP Rel EC50, hGIPR
[4] = molecular target: T2, hGLP-1R (Homo sapiens, UniProt P43220); experiment: Functional cAMP activation in the presence of 0.1% casein (no HSA); details: read-out: Relative cAMP EC50, hGLP-1R;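 note: intracellular cAMP rise after 30 min at 37 °C read by HTRF, normalized between buffer only (0%) and maximal control ligand (100%), four-parameter variable-slope fit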
[5] = molecular target: hGcgR (Homo sapiens, UniProt P47871); experiment: as above; details: read-out: Relative cAMP EC50, hGcgR;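 note: intracellular cAMP rise after 30 min at 37 °C, read by HTRF against a cAMP standard curve, scaled from buffer only (0%) to maximal control ligand response (100%)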
[6] = molecular target: T2, hGLP-1R; experiment: Functional cAMP activity in the presence of 1% HSA; details: read-out: cAMP Rel EC50, hGLP-1R
[7] = in the presence of 0.1% casein (no HSA), geometric mean
[8] = 0.1% casein, no HSA, geometric mean

Sequence of human GcgR (P47871 26-477): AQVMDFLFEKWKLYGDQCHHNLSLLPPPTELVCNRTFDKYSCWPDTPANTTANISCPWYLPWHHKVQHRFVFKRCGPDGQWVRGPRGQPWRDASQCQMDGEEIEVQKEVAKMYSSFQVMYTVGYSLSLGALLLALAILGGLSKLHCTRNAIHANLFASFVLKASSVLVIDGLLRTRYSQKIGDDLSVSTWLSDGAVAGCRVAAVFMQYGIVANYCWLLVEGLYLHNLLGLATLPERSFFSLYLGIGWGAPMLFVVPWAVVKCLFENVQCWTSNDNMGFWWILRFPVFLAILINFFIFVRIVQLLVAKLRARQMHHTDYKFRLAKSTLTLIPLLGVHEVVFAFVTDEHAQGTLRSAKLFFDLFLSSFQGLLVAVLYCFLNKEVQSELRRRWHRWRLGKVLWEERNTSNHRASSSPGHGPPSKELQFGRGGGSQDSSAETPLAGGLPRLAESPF
Sequence of hGcgR (P47871 26-477): as above
T2 sequence (P43220 24-463): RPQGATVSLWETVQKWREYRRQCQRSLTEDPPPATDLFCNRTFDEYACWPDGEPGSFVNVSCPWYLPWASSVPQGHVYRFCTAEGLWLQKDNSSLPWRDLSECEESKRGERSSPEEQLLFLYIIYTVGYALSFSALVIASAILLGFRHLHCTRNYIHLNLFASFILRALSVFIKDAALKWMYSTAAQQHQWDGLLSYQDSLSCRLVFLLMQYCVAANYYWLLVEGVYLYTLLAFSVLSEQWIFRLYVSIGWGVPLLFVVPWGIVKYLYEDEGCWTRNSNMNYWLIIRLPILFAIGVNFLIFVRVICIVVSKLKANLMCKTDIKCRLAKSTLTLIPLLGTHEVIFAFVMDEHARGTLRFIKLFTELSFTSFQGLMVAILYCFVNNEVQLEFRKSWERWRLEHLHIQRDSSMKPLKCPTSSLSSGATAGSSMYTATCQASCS

EC50 [2] [nM]	EC50 [4] [nM]	EC50 [5] [nM]	Compound	EC50 [1] [nM]	EC50 [2, 7] [nM]	EC50 [3] [nM]	EC50 [4, 7] [nM]	EC50 [5, 7] [nM]	EC50 [6] [nM]	EC50 [2, 8] [nM]	EC50 [4, 8] [nM]	EC50 [5, 8] [nM]
–	–	–	H-Y[Aib]QGTFTSD[4Pal]SQ[αMeL]LD[Orn]K([AEEA-γGlu-C18 diacid])AQ[αMe4Pal]AFIE[αMeY]LIA[Aib]GPSSGEPPPSGSEE-NH2 [Example 1099]	472	0.076	8.64	0.73	3.47	75.8	–	–	–
–	–	–	H-Y[Aib]QGT[αMePhe(2-F)]TSD[4Pal][αMeS]I[αMeL]LD[Orn][Orn]([AEEA-γGlu-C18 diacid])AQ[αMe4Pal]EFI[dE][αMeY]LIEGGPSSGAPPPSGS-NH2 [Example 1211]	211	–	0.489	–	–	33.2	0.00592	0.276	1.45
0.0635	0.611	5.38	Y[Aib]QGT[αMePhe(2-F)]TSD[4Pal][αMeS]I[αMeL]LD[Orn]K([γGlu-γGlu-C18 diacid])AQ[Aib][Orn]FI[dE][αMeY]LQEGGPSSGEPPPEGAEE-NH2 [Example 587]	252	–	3.47	–	–	31.9	–	–	–
–	–	–	H-Y[Aib]QGTFTSD[4Pal]S[Orn][αMeL]LDKK([γGlu-γGlu-C18 diacid])AQ[αMe4Pal]AFIE[αMeY]LIAGGPSSGAPPPEGS-NH2 [Example 1015]	357	0.0822	9.08	1.01	3.53	92.4	–	–	–
–	–	–	Y[Aib]QGT[αMePhe(2-F)]TSD[4Pal][αMeS]I[αMeL]LD[Orn]K([AEEA-γGlu-C18 diacid])AQ[αMe4Pal]EFI[dE][αMeY]LIEGGPPS[Aib]EPPPEGE-NH2 [Example 1190]	192	0.0109	0.954	0.765	1.68	77.4	–	–	–
–	–	–	H-Y[Aib]QGTFTSD[4Pal]SQ[αMeL]LD[Orn]K([γGlu-γGlu-C18 diacid])AQ[αMe4Pal]QFIEYLIAGGPSSGAPPPSGSEE-NH2 [Example 1005]	1670	0.152	14.5	1.48	9.46	171	–	–	–
–	–	–	H-Y[Aib]QGT[αMePhe(2-F)]TSD[4Pal][αMeS]I[αMeL]LD[Orn]K([AEEA-γGlu-C18 diacid])AQ[αMe4Pal]EFI[dE][αMeY]LIEGGPPS[Aib]EPPPSGSE-NH2 [Example 1200]	278	–	0.896	–	–	91.4	0.00883	0.727	1.5
0.0579	0.773	4.67	H-Y[Aib]QGT[αMePhe(2-F)]TSD[4Pal][αMeS]I[αMeL]LD[Orn]K([γGlu-γGlu-C18 diacid])AQ[Aib][Orn]FI[dE][αMeY]LAEGGPSSGEPPPSGAEE-NH2 [Example 591]	234	–	3	–	–	44.5	–	–	–
0.0123	0.255	3.22	Y[Aib]QGT[αMePhe(2-F)]TSD[4Pal]SI[αMeL]LD[Orn]K([AEEA-γGlu-C18 diacid])AQ[αMe4Pal][Orn]FI[dE][αMeY]LIEGGPSSGEPPPEGTE-NH2 [Example 679]	188	–	1.02	–	–	21.6	–	–	–
–	–	–	H-Y[Aib]QGTFTSD[4Pal]SQ[αMeL]LDKK([γGlu-γGlu-C18 diacid])AQ[αMe4Pal]AFIEYLIE[Aib]GPSSGAPPPSGSEEE-NH2 [Example 900]	885	0.173	17	3.99	4.74	666	–	–	–
–	–	–	H-Y[Aib]QGTFTSD[4Pal]SR[αMeL]LDKK([AEEA-γGlu-C18 diacid])AQ[αMe4Pal]AFIE[αMe4Pal]LIEGGPSSGAPPPSGSEE-NH2 [Example 956]	406	0.26	32.1	4.83	2.17	643	–	–	–
–	–	–	H-Y[Aib]QGTFTSD[4Pal]SQ[αMeL]LDKK([AEEA-γGlu-C18 diacid])AQ[αMe4Pal]AFIEYLIAGGPSSGAPPPSGSEE-NH2 [Example 1029]	511	0.163	22.3	1.79	5.35	170	–	–	–
–	–	–	Y[Aib]QGTFTSD[4Pal]SK[αMeL]LDKK([AEEA-γGlu-C18 diacid])AQ[Aib]AFIEYLIA[Aib]GESSGEPPPSGE-NH2 [Example 286]	228	0.0845	11.5	3.45	2.2	925	–	–	–
–	–	–	Y[Aib]QGTFTSDFS[Orn][αMeL]LDKK([AEEA-γGlu-C18 diacid])AQ[Aib]AFIEYLIE[Aib]GPSSGAPPPSGS-NH2 [Example 796]	1000	0.098	17.5	0.602	5.3	125	–	–	–
–	–	–	H-Y[Aib]QGT[αMePhe(2-F)]TSDYSKLLDKIAQK([AEEA-γGlu-C18 diacid])AFIEYLIEGGPSSGEPPPSEG-NH2 [Example 330]	398	0.0783	7.33	0.63	3.91	91.8	–	–	–
–	–	–	Y[Aib]QGTFTSD[4Pal]SQ[αMeL]LDKK([dE-γGlu-C18 diacid])AQ[αMe4Pal]AFIEYLIE[Aib]GPSSGAPPPSGSEE-NH2 [Example 928]	1090	0.0883	15.1	3.58	6.85	604	–	–	–
–	–	–	Y[Aib]QGTFTSD[4Pal]SQ[αMeL]LDKK([γGlu-γGlu-C18 diacid])AQ[αMe4Pal]AFIE[αMe4Pal]LIE[Aib]GPSSGAPPPSGTE-NH2 [Example 1118]	802	0.128	5.45	5.42	6.52	183	–	–	–
0.0117	0.267	2.35	H-Y[Aib]QGT[αMePhe(2-F)]TSD[4Pal]SI[αMeL]LD[Orn]K([AEEA-γGlu-C18 diacid])AQ[αMe4Pal][Orn]FI[dE][αMeY]LIEGGPSSGDPPPEGTE-NH2 [Example 731]	291	–	1.27	–	–	27.4	–	–	–
–	–	–	H-Y[Aib]QGTFTSD[4Pal]SQ[αMeL]LDKK([dE-γGlu-C18 diacid])AQ[αMe4Pal]AFIEYLIAGGPSSGAPPPSGE-NH2 [Example 1085]	1370	0.0827	9.84	1.28	11.6	188	–	–	–
0.0101	0.256	4.12	CC[C@H](C)[C@H](NC(=O)[C@H](CC(C)C)NC(=O)[C@](C)(Cc1ccc(O)cc1)NC(=O)[C@@H](CCC(=O)O)NC(=O)[C@@H](NC(=O)[C@H](Cc1ccccc1)NC(=O)[C@H](CC(N)=O)NC(=O)C(C)(C)NC(=O)[C@H](CCC(N)=O)NC(=O)[C@H](C)NC(=O)[C@H](CCCCNC(=O)COCCOCCNC(=O)CC[C@H](NC(=O)CC[C@H](NC(=O)CCCCCCCCCCCCCCCCC(=O)O)C(=O)O)C(=O)O)NC(=O)[C@H](CCCN)NC(=O)[C@H](CC(=O)O)NC(=O)[C@H](CC(C)C)NC(=O)[C@](C)(CC(C)C)NC(=O)[C@@H](NC(=O)[C@](C)(CO)NC(=O)[C@H](Cc1ccncc1)NC(=O)[C@H](CC(=O)O)NC(=O)[C@H](CO)NC(=O)[C@@H](NC(=O)[C@](C)(Cc1ccccc1F)NC(=O)[C@@H](NC(=O)CNC(=O)[C@H](CCC(N)=O)NC(=O)C(C)(C)NC(=O)[C@@H](N)Cc1ccc(O)cc1)[C@@H](C)O)[C@@H](C)O)[C@@H](C)CC)[C@@H](C)CC)C(=O)N[C@@H](CCC(=O)O)C(=O)NCC(=O)NCC(=O)N1CCC[C@H]1C(=O)N[C@@H](CO)C(=O)N[C@@H](CO)C(=O)NCC(=O)N[C@@H](CCC(=O)O)C(=O)N1CCC[C@H]1C(=O)N1CCC[C@H]1C(=O)N1CCC[C@H]1C(=O)N[C@@H](CCC(=O)O)C(N)=O [Example 451] (H-Y[Aib]QGT[αMePhe(2-F)]TSD[4Pal][αMeS]I[αMeL]LD[Orn]K([AEEA-γGlu-γGlu-C18 diacid])AQ[Aib]NFI[dE][αMeY]LIEGGPSSGEPPPE-NH2; N-terminus assumed)	384	–	0.96	–	–	10.9	–	–	–

Compound	EC50 [2] [nM]	EC50 [4] [nM]	EC50 [5] [nM]	EC50 [1] [nM]	EC50 [2, 7] [nM]	EC50 [3] [nM]	EC50 [4, 7] [nM]	EC50 [5, 7] [nM]	EC50 [6] [nM]	EC50 [2, 8] [nM]	EC50 [4, 8] [nM]	EC50 [5, 8] [nM]
Y[Aib]QGT[αMePhe(2-F)]TSD[4Pal]SILLDKK([γGlu-γGlu-C18 diacid])AQ[Aib]AFIEWLQEGGPSSGAPPPSGTEE-NH2 [Example 578]	0.0208	0.233	6.26	781	–	3.73	–	–	54.7	–	–	–
